Assay results: patent publication US6528043B2, “Composition containing sapogenin” (L'Oreal, priority 1999, dated 2003)

Assay: Maximum amount of diosgenin which can be dissolved at 50° C. (procedure repeated, varying the amount of diosgenin)
Assay type: physicochemical
Procedure: The above compositions were prepared in the following way. 100 mg of diosgenin were weighed out and placed in a hermetic pillbox, to which 4.9 g of the solvent(s) were added with magnetic stirring at 25° C. for not more than one hour. In the event that the diosgenin was not dissolved after one hour, the suspension was heated with stirring to 50° C. on a waterbath and then, in the absence of dissolution of the diosgenin after one hour at this temperature, the temperature of the suspension was raised to 70° C.
The above procedure was repeated, varying the amount of diosgenin placed in solution. It was thus shown that the maximum amount of diosgenin which can be dissolved at 50° C. in the mixture of solvents was 2%, whereas it was only 1% in each of the solvents taken individually.
The above procedure was repeated, varying the amount of diosgenin placed in solution. It was thus shown that the maximum amount of diosgenin which can be dissolved at 50° C. in the mixture of solvents was 4%, whereas it was only 1% in each of the solvents taken individually.
The above procedure was repeated, varying the amount of diosgenin placed in solution. It was thus shown that the maximum amount of diosgenin which can be dissolved at 50° C. in the mixture of solvents was 3%, whereas it was only 1% in each of the solvents taken individually.
The amount of diosgenin placed in solution was then varied. It was thus shown that the maximum amount of diosgenin which can be dissolved at 50° C. in the mixture of solvents was 3%, whereas it was only 1% in the ester and 2% in the UV screening agent.

With `C[C@@H]1CC[C@@]2(OC1)O[C@H]1C[C@H]3[C@@H]4CC=C5C[C@@H](O)CC[C@]5(C)[C@H]4CC[C@]3(C)[C@H]1[C@@H]2C` [diosgenin, spirost-5-en-3-beta-ol] the “maximum amount of diosgenin which can be dissolved” value (from here on “maximum amount”) (50/50 mixture of isononyl isononanoate and hexyldecanol) was 3%, the “maximum amount” value (50/50 mixture of isononyl isononanoate and octyl methoxycinnamate) was 3% and the “maximum amount” value (50/50 mixture of isopropyl myristate and hexyldecanol) was 4%. For the same compound, the “maximum amount” value (50/50 mixture of triglyceryl triisostearate and hexyldecanol) was 2%, the “maximum amount” value (hexyldecanol taken individually) was 1% and the “maximum amount” value (isononyl isononanoate (ester) alone) was 1%. For the same compound, the “maximum amount” value (isopropyl myristate taken individually) was 1%, the “maximum amount” value (octyl methoxycinnamate (UV screening agent) alone) was 2% and the “maximum amount” value (triglyceryl triisostearate taken individually) was 1%.
